Laboratory results published in patent US20230123334A1, “AMINO LIPID COMPOUND, PREPARATION METHOD THEREFOR, AND APPLICATION THEREOF” (SHENZHEN SHENXIN BIOTECHNOLOGY CO., LTD., priority 2020, published 2023).

Test system: HEK293 cells
Assay: Preliminary screening as mRNA vectors, EGFP mRNA transfection of HEK293 cells
Type: cell-based
Settings: EGFP mRNA 50 ng per well, 96-well plates; percentage of GFP fluorescent cells relative to total number of cells (Hoechst)
In short: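 Screening format: EGFP mRNA transfection (50 ng/well) into HEK293 in 10% FBS-supplemented DMEM. Percent green fluorescent cells, normalised to Hoechst nuclear count, gave the value; Lipofectamine2000 was the reference transfectant.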

Structure (SMILES)	Absolute mRNA transfection efficiency in HEK293 cells [%]
CCCCCCCCCCCCCCCCNc1nc(NCCN2CCN(C)CC2)nc(SCCCCCC)n1 [Compound D5S6N16]	35.4
CCCCCCCCCCCCCCCCCCNc1nc(NCCN2CCN(C)CC2)nc(SCCCCCC)n1 [Compound D5S6N18]	16.6
CCCCCCSc1nc(NCCN2CCN(C)CC2)nc(SCCCCCC)n1 [Compound D5S6S6]	4.3
CCCCCCCSc1nc(NCCN2CCN(C)CC2)nc(SCCCCCC)n1 [Compound D5S6S7]	10.0
CCCCCCCCSc1nc(NCCN2CCN(C)CC2)nc(SCCCCCC)n1 [Compound D5S6S8]	8.7
CCCCCCCCCSc1nc(NCCN2CCN(C)CC2)nc(SCCCCCC)n1 [Compound D5S6S9]	8.3
CCCCCCCCCCSc1nc(NCCN2CCN(C)CC2)nc(SCCCCCC)n1 [Compound D5S6S10]	10.1
CCCCCCCCCCCSc1nc(NCCN2CCN(C)CC2)nc(SCCCCCC)n1 [Compound D5S6S11]	21.1
CCCCCCCCCCCCSc1nc(NCCN2CCN(C)CC2)nc(SCCCCCC)n1 [Compound D5S6S12]	14.0
CCCCCCCCCCCCCCSc1nc(NCCN2CCN(C)CC2)nc(SCCCCCC)n1 [Compound D5S6S14]	45.3
CCCCCCCCCCCCCCCSc1nc(NCCN2CCN(C)CC2)nc(SCCCCCC)n1 [Compound D5S6S15]	29.7
CCCCCCCCCCCCCCCCSc1nc(NCCN2CCN(C)CC2)nc(SCCCCCC)n1 [Compound D5S6S16]	60.5
CCCCCCCCCCCCCCCCCCSc1nc(NCCN2CCN(C)CC2)nc(SCCCCCC)n1 [Compound D5S6S18]	55.1
CCCCCCCSc1nc(NCCCCCC)nc(NCCN2CCN(C)CC2)n1 [Compound D5S7N6]	1.9
CCCCCCCNc1nc(NCCN2CCN(C)CC2)nc(SCCCCCCC)n1 [Compound D5S7N7]	1.0
CCCCCCCCNc1nc(NCCN2CCN(C)CC2)nc(SCCCCCCC)n1 [Compound D5S7N8]	4.3
CCCCCCCCCNc1nc(NCCN2CCN(C)CC2)nc(SCCCCCCC)n1 [Compound D5S7N9]	3.1
CCCCCCCCCCCNc1nc(NCCN2CCN(C)CC2)nc(SCCCCCCC)n1 [Compound D5S7N11]	8.2
CCCCCCCCCCCCNc1nc(NCCN2CCN(C)CC2)nc(SCCCCCCC)n1 [Compound D5S7N12]	23.0
CCCCCCCCCCCCCNc1nc(NCCN2CCN(C)CC2)nc(SCCCCCCC)n1 [Compound D5S7N13]	39.5
CCCCCCCCCCCCCCCNc1nc(NCCN2CCN(C)CC2)nc(SCCCCCCC)n1 [Compound D5S7N15]	38.5

Structure (SMILES)	Absolute mRNA transfection efficiency in HEK293 cells [%]
CCCCCCCCCCCCCCCCNc1nc(NCCN2CCN(C)CC2)nc(SCCCCCCC)n1 [Compound D5S7N16]	32.2
CCCCCCCCCCCCCCCCCCNc1nc(NCCN2CCN(C)CC2)nc(SCCCCCCC)n1 [Compound D5S7N18]	38.5
CCCCCCCSc1nc(NCCN2CCN(C)CC2)nc(SCCCCCCC)n1 [Compound D5S7S7]	10.5
CCCCCCCCSc1nc(NCCN2CCN(C)CC2)nc(SCCCCCCC)n1 [Compound D5S7S8]	16.6
CCCCCCCCCSc1nc(NCCN2CCN(C)CC2)nc(SCCCCCCC)n1 [Compound D5S7S9]	20.6
CCCCCCCCCCSc1nc(NCCN2CCN(C)CC2)nc(SCCCCCCC)n1 [Compound D5S7S10]	12.2
CCCCCCCCCCCSc1nc(NCCN2CCN(C)CC2)nc(SCCCCCCC)n1 [Compound D5S7S11]	42.0
CCCCCCCCCCCCSc1nc(NCCN2CCN(C)CC2)nc(SCCCCCCC)n1 [Compound D5S7S12]	48.8
CCCCCCCCCCCCCCSc1nc(NCCN2CCN(C)CC2)nc(SCCCCCCC)n1 [Compound D5S7S14]	63.7
CCCCCCCCCCCCCCCSc1nc(NCCN2CCN(C)CC2)nc(SCCCCCCC)n1 [Compound D5S7S15]	58.7
CCCCCCCCCCCCCCCCSc1nc(NCCN2CCN(C)CC2)nc(SCCCCCCC)n1 [Compound D5S7S16]	49.2
CCCCCCCCCCCCCCCCCCSc1nc(NCCN2CCN(C)CC2)nc(SCCCCCCC)n1 [Compound D5S7S18]	3.8
CCCCCCCCSc1nc(NCCCCCC)nc(NCCN2CCN(C)CC2)n1 [Compound D5S8N6]	1.6
CCCCCCCCSc1nc(NCCCCCCC)nc(NCCN2CCN(C)CC2)n1 [Compound D5S8N7]	2.5
CCCCCCCCNc1nc(NCCN2CCN(C)CC2)nc(SCCCCCCCC)n1 [Compound D5S8N8]	1.3
CCCCCCCCCNc1nc(NCCN2CCN(C)CC2)nc(SCCCCCCCC)n1 [Compound D5S8N9]	11.2
CCCCCCCCCCCNc1nc(NCCN2CCN(C)CC2)nc(SCCCCCCCC)n1 [Compound D5S8N11]	30.1
CCCCCCCCCCCCNc1nc(NCCN2CCN(C)CC2)nc(SCCCCCCCC)n1 [Compound D5S8N12]	52.5
CCCCCCCCCCCCCNc1nc(NCCN2CCN(C)CC2)nc(SCCCCCCCC)n1 [Compound D5S8N13]	44.2
CCCCCCCCCCCCCCCNc1nc(NCCN2CCN(C)CC2)nc(SCCCCCCCC)n1 [Compound D5S8N15]	14.9
CCCCCCCCCCCCCCCCNc1nc(NCCN2CCN(C)CC2)nc(SCCCCCCCC)n1 [Compound D5S8N16]	32.3

Structure (SMILES)	Absolute mRNA transfection efficiency in HEK293 cells [%]
CCCCCCCCCCCCCCCCCCNc1nc(NCCN2CCN(C)CC2)nc(SCCCCCCCC)n1 [Compound D5S8N18]	29.9
CCCCCCCCSc1nc(NCCN2CCN(C)CC2)nc(SCCCCCCCC)n1 [Compound D5S8S8]	45.2
CCCCCCCCCSc1nc(NCCN2CCN(C)CC2)nc(SCCCCCCCC)n1 [Compound D5S8S9]	36.1
CCCCCCCCCCSc1nc(NCCN2CCN(C)CC2)nc(SCCCCCCCC)n1 [Compound D5S8S10]	65.6
CCCCCCCCCCCSc1nc(NCCN2CCN(C)CC2)nc(SCCCCCCCC)n1 [Compound D5S8S11]	87.0
CCCCCCCCCCCCSc1nc(NCCN2CCN(C)CC2)nc(SCCCCCCCC)n1 [Compound D5S8S12]	47.4
CCCCCCCCCSc1nc(NCCCCCC)nc(NCCN2CCN(C)CC2)n1 [Compound D5S9N6]	2.9
CCCCCCCCCSc1nc(NCCCCCCC)nc(NCCN2CCN(C)CC2)n1 [Compound D5S9N7]	2.6
CCCCCCCCCSc1nc(NCCCCCCCC)nc(NCCN2CCN(C)CC2)n1 [Compound D5S9N8]	6.0
CCCCCCCCCNc1nc(NCCN2CCN(C)CC2)nc(SCCCCCCCCC)n1 [Compound D5S9N9]	38.2
CCCCCCCCCCCNc1nc(NCCN2CCN(C)CC2)nc(SCCCCCCCCC)n1 [Compound D5S9N11]	32.1
CCCCCCCCCCCCNc1nc(NCCN2CCN(C)CC2)nc(SCCCCCCCCC)n1 [Compound D5S9N12]	24.6
CCCCCCCCCCCCCNc1nc(NCCN2CCN(C)CC2)nc(SCCCCCCCCC)n1 [Compound D5S9N13]	41.5
CCCCCCCCCCCCCCCNc1nc(NCCN2CCN(C)CC2)nc(SCCCCCCCCC)n1 [Compound D5S9N15]	32.9
CCCCCCCCCCCCCCCCNc1nc(NCCN2CCN(C)CC2)nc(SCCCCCCCCC)n1 [Compound D5S9N16]	16.1
CCCCCCCCCCCCCCCCCCNc1nc(NCCN2CCN(C)CC2)nc(SCCCCCCCCC)n1 [Compound D5S9N18]	28.6
CCCCCCCCCCSc1nc(NCCCCCC)nc(NCCN2CCN(C)CC2)n1 [Compound D5S10N6]	1.1
CCCCCCCCCCSc1nc(NCCCCCCC)nc(NCCN2CCN(C)CC2)n1 [Compound D5S10N7]	3.2
CCCCCCCCCCSc1nc(NCCCCCCCC)nc(NCCN2CCN(C)CC2)n1 [Compound D5S10N8]	8.6
CCCCCCCCCCSc1nc(NCCCCCCCCC)nc(NCCN2CCN(C)CC2)n1 [Compound D5S10N9]	8.5
